Values quoted from earlier work as cited in patent publication US20210059976A1, “ORAL PHARMACEUTICAL FORMULATION COMPRISING CANNABINOIDS AND POLOXAMER” (GW Research Limited, priority 2018, published 2021).
Like-named read-outs stand apart in the source and are kept apart here.

Columns and labels:
[1] = test system: acute experimental models of generalized seizure
[2] = 20 mg oral administration, man

| SMILES | efficacy in acute experimental models of generalized seizure ([1]; 100 mg/kg, but not 1 or 10 mg/kg) | Oral bioavailability | efficacy in acute experimental models of generalized seizure ([1]; between 1.25 and 10 mg/kg) | somnolence [2] |
| --- | --- | --- | --- | --- |
| C=C(C)[C@@H]1CCC(C)=C[C@H]1c1c(O)cc(CCCCC)cc1O [CBD, cannabidiol] | efficacious | low and unpredictable | – | – |
| CCCCCc1cc(O)c2c(c1)OC(C)(C)[C@@H]1CCC(C)=C[C@@H]21 [THC, tetrahydrocannabinol] | – | – | efficacious | induces somnolence |
